According to article PMC12040169 (PLOS Biology, 2025):

Assay: in vitro
Conditions: human, hela cells, % viability

Compound | viability at 28.5 h, 10 µM
N#Cc1ccc(-c2cnc(N)c(-c3ccc(C(=O)N4CCOCC4)cc3)n2)cc1 [CBK064067T] | 116%
CCCC/C=C/c1cnc(N)c(-c2ccc(O)cc2)n1 [CBK064068] | 95.3%
Nc1ncc(-c2cccc(OC(F)(F)F)c2)nc1-c1ccc(CCC(=O)O)cc1 [CBK064071] | 95.2%
Nc1ncc(-c2ccoc2)nc1-c1ccc(C(=O)N2CCOCC2)cc1 [CBK064076] | 101%
COc1ccccc1-c1cnc(N)c(N2CCC(C(=O)O)CC2)n1 [CBK064082] | 96.1%
Nc1ncc(-c2cccc(O)c2)nc1-c1ccc(C=O)cc1 [CBK064088] | 104%
CC(=O)c1ccc(-c2nc(-c3ccc(Cl)cc3)cnc2N)cc1 [CBK064097] | 89.6%
COc1ccc(-c2nc(-c3cc4ccccc4o3)cnc2N)cc1OC [CBK064099] | 63.2%
Nc1ncc(-c2ccncc2)nc1-c1ccc(C=O)cc1 [CBK064102] | 106%
CC(=O)c1ccc(-c2nc(-c3cccc(OC(F)(F)F)c3)cnc2N)cc1 [CBK064105] | 103%
NC(=O)c1cccc(-c2nc(-c3ccc(F)cc3F)cnc2N)c1 [CBK064109] | 86.5%
NC(=O)c1cccc(-c2nc(-c3cccs3)cnc2N)c1 [CBK064117] | 89.7%
Nc1ncc(-c2cc3ccccc3o2)nc1-c1ccc(C=O)cc1 [CBK064126] | 91.9%
Nc1ncc(-c2cccc(F)c2)nc1-c1ccc(C(=O)N2CCOCC2)cc1 [CBK064131] | 88.4%
Nc1ncc(-c2cccs2)nc1-c1ccc(C(=O)O)cc1 [CBK064133] | 91.4%
Nc1ncc(-c2cccc(O)c2)nc1-c1ccc(CCC(=O)O)cc1 [CBK064135] | 103%
CN1CCN(C(=O)c2cccc(-c3nc(-c4ccc(C#N)cc4)cnc3N)c2)CC1 [CBK064144] | 100%
CCCC/C=C/c1cnc(N)c(N[C@H](C)c2ccccc2)n1 [CBK064148] | 95.1%
COCCn1c(=O)[nH]c2ncc(-c3ccsc3)nc21 [CBK064156] | 108%
C[C@H](c1ccccc1)n1c(=O)[nH]c2ncc(-c3cccc(-c4ccccc4)c3)nc21 [CBK064158] | 96.5%
CC(=O)Nc1cccc(-c2cnc3[nH]c(=O)n([C@@H](C)c4ccccc4)c3n2)c1 [CBK064159] | 98.2%

Compound | viability at 28.5 h, 10 µM
C[C@@H](c1ccccc1)n1c(=O)[nH]c2ncc(-c3ccco3)nc21 [CBK064168] | 112%
C[C@H](c1ccccc1)n1c(=O)[nH]c2ncc(-c3cccc4ncccc34)nc21 [CBK064173] | 89.6%
COc1ccc(C(C)C)cc1-c1cnc2[nH]c(=O)n([C@H](C)c3ccccc3)c2n1 [CBK064181] | 87.3%
O=c1[nH]c2ncc(-c3cccc(OC(F)(F)F)c3)nc2n1C1CCCCC1 [CBK064187] | 93.6%
CC(=O)Nc1cccc(-c2cnc3[nH]c(=O)n([C@H](C)c4ccccc4)c3n2)c1 [CBK064188] | 95.9%
C[C@@H](c1ccccc1)n1c(=O)[nH]c2ncc(-c3cccc(-c4ccccc4)c3)nc21 [CBK064192] | 88.8%
CC(C)Cn1c(=O)[nH]c2ncc(-c3cccc4ccccc34)nc21 [CBK064194] | 107%
COc1ccccc1-c1cnc2[nH]c(=O)n(C3CCCCC3)c2n1 [CBK064203] | 98.7%
C[C@H](c1ccccc1)n1c(=O)[nH]c2ncc(-c3cccc(C(=O)NCCN(C)C)c3)nc21 [CBK064204] | 96.5%
COc1ccc(-c2cnc3[nH]c(=O)n(Cc4ccccc4)c3n2)cc1 [CBK064210] | 103%
O=c1[nH]c2ncc(-c3cccc4cccnc34)nc2n1C1CCCCC1 [CBK064215] | 96%
O=c1[nH]c2ncc(-c3ccsc3)nc2n1Cc1ccccc1 [CBK064227] | 96.7%
C[C@H](c1ccccc1)n1c(=O)[nH]c2ncc(-c3cccc4cccnc34)nc21 [CBK064237] | 44.4%
C[C@H](c1ccccc1)n1c(=O)[nH]c2ncc(-c3cccc4ccccc34)nc21 [CBK064241] | 101%
O=c1[nH]c2ncc(-c3cccc4ncccc34)nc2n1Cc1ccccc1 [CBK064245] | 89.4%
CN(C)CCn1c(=O)[nH]c2ncc(-c3ccco3)nc21 [CBK064251] | 97.1%
O=c1[nH]c2ncc(-c3cccc(-c4ccccc4)c3)nc2n1Cc1ccccc1 [CBK064252] | 96.1%
O=c1[nH]c2ncc(-c3ccc(-c4ccccc4)cc3)nc2n1Cc1cccnc1 [CBK064282] | 94%
COc1ccccc1-c1cnc2[nH]c(=O)n(CC3CCOCC3)c2n1 [CBK064286] | 100%
O=c1[nH]c2ncc(-c3ccsc3)nc2n1CC1CCOCC1 [CBK064293] | 86.3%
CN(C)CCn1c(=O)[nH]c2ncc(-c3ccoc3)nc21 [CBK064294] | 92.6%

Compound | viability at 28.5 h, 10 µM
O=C(c1ccc(-c2cnc3[nH]c(=O)n(CCc4cccnc4)c3n2)cc1)N1CCOCC1 [CBK064334] | 99.1%
COCCCn1c(=O)[nH]c2ncc(-c3cc(C(C)C)ccc3OC)nc21 [CBK064351] | 82.8%
CC(C)Cn1c(=O)[nH]c2ncc(-c3ccco3)nc21 [CBK064353] | 91.9%
C[C@H](c1ccccc1)n1c(=O)[nH]c2ncc(-c3ccc(N(C)C)cc3)nc21 [CBK064367] | 102%
CCCC/C=C/c1cnc2[nH]c(=O)n(Cc3cccs3)c2n1 [CBK064373] | 83.6%
CC(=O)c1ccc(-c2cnc3[nH]c(=O)n([C@H](C)c4ccccc4)c3n2)s1 [CBK064375] | 98.2%
C[C@H](c1ccccc1)n1c(=O)[nH]c2ncc(-c3ccc(C(N)=O)cc3)nc21 [CBK064377] | 111%
C[C@H](c1ccccc1)n1c(=O)[nH]c2ncc(-c3ccco3)nc21 [CBK064415] | 98.1%
COCCCn1c(=O)[nH]c2ncc(-c3cccc(NC(C)=O)c3)nc21 [CBK064433] | 97.5%
O=c1[nH]c2ncc(-c3cccc(Br)c3)nc2n1CCc1cccnc1 [CBK064457] | 103%
COc1cc(Cn2c(=O)[nH]c3ncc(-c4ccco4)nc32)cc(OC)c1OC [CBK064461] | 106%
O=c1[nH]c2ncc(-c3ccco3)nc2n1CCc1cccnc1 [CBK064494] | 94.7%
COc1ccc(C(C)C)cc1-c1cnc2[nH]c(=O)n([C@@H](CO)C(C)C)c2n1 [CBK064495] | 90.3%
CCCC/C=C/c1cnc2[nH]c(=O)n(CCc3cccnc3)c2n1 [CBK064496] | 92.7%
COCCCn1c(=O)[nH]c2ncc(-c3cccc(OC)c3)nc21 [CBK064519] | 108%
O=C(c1ccc(-c2cnc3[nH]c(=O)n(C4CCCCC4)c3n2)cc1)N1CCOCC1 [CBK064566] | 106%
CN(C)c1cccc(-c2cnc3[nH]c(=O)n(CCc4ccncc4)c3n2)c1 [CBK064628] | 91.1%
O=c1[nH]c2ncc(-c3ccoc3)nc2n1Cc1ccco1 [CBK064639] | 102%
O=c1[nH]c2ncc(-c3ccoc3)nc2n1Cc1cccs1 [CBK064647] | 90.3%
O=c1[nH]c2ncc(-c3ccsc3)nc2n1-c1ccc2[nH]ccc2c1 [CBK064650] | 108%
CN1CCN(C(=O)c2ccc(-c3cnc4[nH]c(=O)n(Cc5ccncc5)c4n3)cc2)CC1 [CBK064679] | 101%

Compound | viability at 28.5 h, 10 µM
CS(=O)(=O)c1ccc(-c2cnc3[nH]c(=O)n(-c4ccc5[nH]ccc5c4)c3n2)cc1 [CBK064691] | 96.6%
CC(C)(CO)Cn1c(=O)[nH]c2ncc(-c3cccnc3)nc21 [CBK064697] | 107%
CS(=O)(=O)Nc1cccc(-c2cnc3[nH]c(=O)n(Cc4cccs4)c3n2)c1 [CBK064708] | 91%
C[C@H](c1ccccc1)n1c(=O)[nH]c2ncc(-c3cncc4ccccc34)nc21 [CBK064709] | 90.4%
C[C@@H](c1ccccc1)n1c(=O)[nH]c2ncc(-c3cccc4ccccc34)nc21 [CBK064710] | 97%
COc1ccc(C(C)C)cc1-c1cnc2[nH]c(=O)n(-c3ccc4[nH]ccc4c3)c2n1 [CBK064714] | 90.7%
COc1ccc(-c2cnc3[nH]c(=O)n(Cc4cccs4)c3n2)c(OC)c1OC [CBK064716] | 97.2%
C[C@@H](c1ccccc1)n1c(=O)[nH]c2ncc(-c3cncc4ccccc34)nc21 [CBK064726] | 73.9%
CC(C)(CO)Cn1c(=O)[nH]c2ncc(-c3ccc(F)c(Cl)c3)nc21 [CBK064737] | 102%
CC(C)[C@@H](CO)n1c(=O)[nH]c2ncc(-c3ccc(N4CCOCC4)cc3)nc21 [CBK064770] | 110%
COc1ccc(-c2cnc3[nH]c(=O)n([C@@H](CO)C(C)C)c3n2)c(OC)c1OC [CBK064774] | 94.3%
CC(C)(CO)Cn1c(=O)[nH]c2ncc(-c3ccc(C(N)=O)cc3)nc21 [CBK064787] | 88.5%
O=c1[nH]c2ncc(-c3ccccc3)nc2n1CCCN1CCOCC1 [CBK064805] | 111%
CN(C)C(=O)c1ccc(-c2cnc3[nH]c(=O)n(CCCN4CCOCC4)c3n2)cc1 [CBK064828] | 108%
COc1ccc(-c2cnc3[nH]c(=O)n(CC(C)(C)CO)c3n2)c(OC)c1OC [CBK064833] | 91.8%
O=c1[nH]c2ncc(-c3cccc4ncccc34)nc2n1C1CCCCC1 [CBK064861] | 109%
O=C(NC1CC1)c1ccc(-c2cnc3[nH]c(=O)n(CC4CCOCC4)c3n2)cc1 [CBK064890] | 85.2%
COc1ncc(-c2cnc3[nH]c(=O)n(CC4CCOCC4)c3n2)cn1 [CBK064898] | 98.1%
CN1CCN(c2ccc(-c3cnc4[nH]c(=O)n(C5CC5)c4n3)cc2)CC1 [CBK064899] | 89.7%
COc1ccc(C(C)C)cc1-c1cnc2[nH]c(=O)n(C3CC3)c2n1 [CBK064915] | 91.2%
O=C(NC1CC1)c1ccc(-c2cnc3[nH]c(=O)n(-c4ccc5[nH]ccc5c4)c3n2)cc1 [CBK064916] | 103%
